Experimental data: PubChem BioAssay (NCI)
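Test compounds were applied to cells in 96-well plates for 48 hours at 5 doses. Here, GI50 denotes the concentration required for 50% inhibition of growth. Definition used: TGI = concentration required for complete inhibition of growth.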

How the values were obtained:
Test in all cases: DTP human tumour cell line panel, 48 h
OVCAR-8 ovarian = tested on: OVCAR-8 ovarian
SNB-75 CNS = tested on: SNB-75 CNS
SF-539 CNS = tested on: SF-539 CNS
HCT-116 colon = tested on: HCT-116 colon
RPMI-8226 leukemia = tested on: RPMI-8226 leukemia
SK-MEL-5 melanoma = tested on: SK-MEL-5 melanoma
NCI-H522 lung = tested on: NCI-H522 lung
SR leukemia = tested on: SR leukemia
RXF 393 renal = tested on: RXF 393 renal
HS 578T breast = tested on: HS 578T breast

SMILES | GI50 (OVCAR-8 ovarian) [µM] | TGI (OVCAR-8 ovarian) [µM] | GI50 (SNB-75 CNS) [µM] | TGI (SNB-75 CNS) [µM] | GI50 (SF-539 CNS) [µM] | TGI (SF-539 CNS) [µM] | GI50 (HCT-116 colon) [µM] | TGI (HCT-116 colon) [µM] | GI50 (RPMI-8226 leukemia) [µM] | TGI (RPMI-8226 leukemia) [µM] | GI50 (SK-MEL-5 melanoma) [µM] | TGI (SK-MEL-5 melanoma) [µM] | GI50 (NCI-H522 lung) [µM] | TGI (NCI-H522 lung) [µM] | GI50 (SR leukemia) [µM] | TGI (SR leukemia) [µM] | GI50 (RXF 393 renal) [µM] | TGI (RXF 393 renal) [µM] | TGI (HS 578T breast) [µM] | GI50 (HS 578T breast) [µM]
CC[O-].CC[O-].O=C([CH-]C(=O)c1cccnc1)c1ccccc1.O=C([CH-]C(=O)c1cccnc1)c1ccccc1.[Ti+4] | 26.2 | > 100 | 19.9 | 69 | 43.1 | > 100 | > 100 | > 100 | 55.8 | > 100 | > 100 | > 100 | 26.1 | > 100 | 25.5 | > 100 | 19.7 | 70.4 |  | 
O=c1cc(-c2ccccc2)oc2cc(O)c(O)c(O)c12 | 46.5 | > 100 | > 100 | > 100 | 8.4 | 36.8 | 11.1 | 31.8 | 9.27 | > 100 | 9.47 | 45.3 | 13.3 | > 100 |  |  | 78.6 | > 100 |  | 
COc1cc2c(cc1O)-c1c(cnn1-c1ccc([N+](=O)[O-])cc1)CCC2 |  | 50.3 |  | > 100 |  | 33.4 |  | 71.4 |  | 16.6 |  | 26.2 |  | 40.9 |  |  |  | > 100 | 81.8 | 
COC(c1cccc(C(O)(C(F)(F)F)C(F)(F)F)c1)(C(F)(F)F)C(F)(F)F |  | 45.4 |  | 32.1 |  | 33.3 |  | 31 |  |  |  |  |  | 26.5 |  | 51.4 |  | 35.9 |  | 
O=C(O)C1=CCCc2ccc3ccccc3c21 |  | > 100 |  | > 100 |  | > 100 |  | > 100 |  | > 100 |  |  |  | > 100 |  |  |  | > 100 |  | 
O=C(CCC(=O)Nc1cccc(Cl)c1)CC(=O)c1ccc(F)cc1 |  | > 100 |  | > 100 |  | > 100 |  | > 100 |  | > 100 |  |  |  | > 100 |  | > 100 |  |  |  | 
Cn1c2c(c3ccccc31)CCN(CCN1CCN(c3ccccc3)CC1)C2=O |  | > 100 |  |  |  | > 100 |  | > 100 |  | > 100 |  | > 100 |  | 92.9 |  |  |  | 83.4 |  | 
CCN(CC)CCCn1cnc2ncccc2c1=O |  | > 100 |  | > 100 |  | > 100 |  | > 100 |  |  |  | > 100 |  | > 100 |  | > 100 |  | > 100 |  | 
C/C(=N\NC(N)=S)c1cc(C)c(C)cc1C |  | > 100 |  | 85.3 |  | > 100 |  | > 100 |  | > 100 |  | > 100 |  |  |  | > 100 |  | 97.2 |  | 
C#CCN(Cc1nc2cc(C(F)(F)F)ccc2nc1-c1ccccc1)c1ccc(OC(F)(F)F)cc1 | 74.3 | > 100 | > 100 | > 100 | 20 | 41.2 | 25 | > 100 | 23.3 | > 100 | 34 | > 100 | 16.6 | 54.6 |  |  | 46.7 | > 100 | > 100 | > 100
